Experiments:
[1] = test system: B16F10 murine melanoma; assay: B16F10 murine melanoma, combination with TMZ; assay type: in vivo, C57BL/6 mice; conditions: A-861695 25, 12.5 or 3.1 mg/kg/day p.o. b.i.d. + TMZ 62.5 mg/kg/day p.o. q.d. X5; FIG. 2
Method: This study was done on mice with B 16F10 murine melanoma. Mice were divided into six treatment groups with 8-10 mice per group. See figure two for treatment groups. B16F10 cells were injected s.c. into C57BL/6 mice on day 0. Dosing was initiated on day one. A-861695 was administered p.o., b.i.d. on days 1-14. On days 3-7 temozolomide (TMZ) was administered p.o., q.d. (for the groups receiving both TMZ and A-861695, TMZ was given two hours after the A-861695 was administered).

[2] = test system: MX-1 breast carcinoma xenograft; assay: MX-1 breast carcinoma xenograft, combination with carboplatin; assay type: in vivo, scid mice; conditions: A-861695 25 mg/kg/day s.c. OMPs 14 days + carboplatin 10 and 15 mg/kg/day
Excerpt: This cell line was derived from a person with a poorly differentiated mammary carcinoma.
Data presented in FIG. 4 are mean ±S.E.M. of 8-10 mice per treatment group.

[3] = test system: MX-1 breast carcinoma xenograft; assay: MX-1 breast carcinoma xenograft, combination with cisplatin; assay type: in vivo, nude mice; conditions: FIG. 5
Method: In this study the efficacy of A-861695 in combination with cisplatin was evaluated in the MX-1 breast carcinoma xenograft model in nude mice. Tumors were size-matched to 100 mm^3 on day 16 and PARP inhibitor therapy (p.o., b.i.d. x8) was initiated the same day. A single dose of cisplatin at 6.0 mg/kg/day was administered i.p. day 18. Data, shown in FIG. 5, are mean ±S.E.M. of 9 mice per treatment group.

[4] = test system: HSB T-cell ALL; JM1 pre-B ALL; P115 primary AML cells; assay: TMZ and ABT-888 combinations in leukemia cells (FIGS. 9-11); conditions: differing amounts of TMZ and ABT-888
[5] = test system: DoHH-2 flank tumor xenograft
Method: Animals were size matched on day 15 to an approximate tumor volume of 503 mm^3.
Group mouse weights were recorded three times a week to monitor for weight loss due to toxicity or excessive tumor burden.

[6] = test system: MDA-231-LN-luc cells in the brain striatum; conditions: Kaplan-Meier, Logrank; FIG. 23
[7] = test system: MX-1 flank xenograft; conditions: TMZ at 50 and 12.5 mg/kg/day
Excerpt: All mice were ear tagged. […] At various intervals following tumor cell inoculation, the individual tumor dimensions were serially measured using calibrated microcalipers and the tumor volumes calculated according to the formula V=L×W^2/2 (V:volume, L:length, W:width). Mice were humanely euthanized when the tumor volumes reached a predetermined size.

## C[C@]1(c2nc3c(C(N)=O)cccc3[nH]2)CCCN1 [ABT-888, 2-[(2R)-2-methylpyrrolidin-2-yl]-1H-benzimidazole-4-carboxamide]
[1]
  potentiation of TMZ efficacy: significantly potentates the TMZ efficacy in a dose dependent manner
[2]
  potentiation of carboplatin (tumor volumes): pronounced potentiation of carboplatin
[3]
  potentiation of cisplatin activity: pronounced potentiation of cisplatin activity
[4]
  effect on toxicity of TMZ: enhancement of toxicity of TMZ
rat, in vivo
  blood brain barrier crossing: crosses the blood brain barrier
tumor-bearing rats
  effect of co-administration of TMZ on plasma PK profile: did not alter the plasma PK profile
[5]; Scid female mice, same dosing
  Observations (toxicity assessment): None
[5]; single agent
  efficacy at reducing the Mean Tumor Volume, alone: no efficacy
[6]
  survival to 300% tumor change endpoint: profoundly improved survival compared to TMZ treatment alone
[7]
  effect on toxicity of TMZ (% mean body weight loss): did not exacerbate the toxicity of TMZ

— patent US20080293795A1, “COMBINATION THERAPY WITH PARP INHIBITORS” (ABBOTT LABORATORIES, priority 2006, published 2008)
